Where two headings read alike, the source gives them in different places.
Tests used:
Format in all cases: biochemical
GST-PLK1 = GST-PLK1 (Homo sapiens, UniProt P53350); test: PLK TR-FRET peptide assay, PLK1; details: read-out: Plk1 IC50
GST-PLK2 = biological target: T1, GST-PLK2 (Homo sapiens, UniProt Q9NYY3); test: PLK TR-FRET peptide assay, PLK2; details: read-out: Plk2 IC50
T1 construct: purchased CarnaBio

GST-PLK3 = biological target: T2, GST-PLK3 (Homo sapiens, UniProt Q9H4B4); test: PLK TR-FRET peptide assay, PLK3
T2 construct: purchased CarnaBio

[1] = PLK TR-FRET peptide assay, GST-PLK2
[2] = PLK TR-FRET peptide assay, GST-PLK3; read-out: Plk3 IC50

T1 sequence (Q9NYY3 whole entry): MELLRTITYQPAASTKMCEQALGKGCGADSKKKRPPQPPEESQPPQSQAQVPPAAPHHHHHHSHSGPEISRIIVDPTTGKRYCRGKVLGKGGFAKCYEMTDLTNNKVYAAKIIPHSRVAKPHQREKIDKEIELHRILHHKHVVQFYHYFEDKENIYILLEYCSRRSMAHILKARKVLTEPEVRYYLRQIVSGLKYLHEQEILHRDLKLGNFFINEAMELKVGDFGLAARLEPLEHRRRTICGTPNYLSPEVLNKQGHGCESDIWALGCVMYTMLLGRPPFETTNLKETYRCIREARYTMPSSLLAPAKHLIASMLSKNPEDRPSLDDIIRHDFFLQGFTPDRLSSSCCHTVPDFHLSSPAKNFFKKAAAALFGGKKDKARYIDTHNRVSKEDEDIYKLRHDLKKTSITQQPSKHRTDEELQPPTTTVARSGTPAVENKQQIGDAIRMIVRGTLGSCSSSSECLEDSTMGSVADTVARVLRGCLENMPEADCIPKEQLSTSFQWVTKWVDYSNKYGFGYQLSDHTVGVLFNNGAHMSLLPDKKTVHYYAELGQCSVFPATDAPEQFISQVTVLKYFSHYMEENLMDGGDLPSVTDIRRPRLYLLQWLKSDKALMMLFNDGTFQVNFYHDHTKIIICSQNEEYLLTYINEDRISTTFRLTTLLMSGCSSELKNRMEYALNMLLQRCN
Chain of GST-PLK1 (P53350 whole entry): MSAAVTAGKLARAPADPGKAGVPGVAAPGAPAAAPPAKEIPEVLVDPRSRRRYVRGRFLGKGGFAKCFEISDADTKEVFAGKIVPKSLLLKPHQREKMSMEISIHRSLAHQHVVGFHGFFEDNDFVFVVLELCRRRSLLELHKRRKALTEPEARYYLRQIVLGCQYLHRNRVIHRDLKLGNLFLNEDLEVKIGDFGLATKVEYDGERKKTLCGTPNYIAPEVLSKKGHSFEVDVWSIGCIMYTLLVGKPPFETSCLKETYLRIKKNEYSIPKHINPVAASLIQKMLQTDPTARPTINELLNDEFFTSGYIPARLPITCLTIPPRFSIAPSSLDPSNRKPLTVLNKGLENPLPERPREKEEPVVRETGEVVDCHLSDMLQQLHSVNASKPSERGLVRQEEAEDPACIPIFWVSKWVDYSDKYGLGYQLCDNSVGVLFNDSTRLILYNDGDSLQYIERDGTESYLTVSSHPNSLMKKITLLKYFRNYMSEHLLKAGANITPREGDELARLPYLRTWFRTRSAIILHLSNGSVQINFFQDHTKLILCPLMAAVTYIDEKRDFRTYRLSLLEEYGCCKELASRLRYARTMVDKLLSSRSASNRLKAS
T2 sequence (Q9H4B4 whole entry): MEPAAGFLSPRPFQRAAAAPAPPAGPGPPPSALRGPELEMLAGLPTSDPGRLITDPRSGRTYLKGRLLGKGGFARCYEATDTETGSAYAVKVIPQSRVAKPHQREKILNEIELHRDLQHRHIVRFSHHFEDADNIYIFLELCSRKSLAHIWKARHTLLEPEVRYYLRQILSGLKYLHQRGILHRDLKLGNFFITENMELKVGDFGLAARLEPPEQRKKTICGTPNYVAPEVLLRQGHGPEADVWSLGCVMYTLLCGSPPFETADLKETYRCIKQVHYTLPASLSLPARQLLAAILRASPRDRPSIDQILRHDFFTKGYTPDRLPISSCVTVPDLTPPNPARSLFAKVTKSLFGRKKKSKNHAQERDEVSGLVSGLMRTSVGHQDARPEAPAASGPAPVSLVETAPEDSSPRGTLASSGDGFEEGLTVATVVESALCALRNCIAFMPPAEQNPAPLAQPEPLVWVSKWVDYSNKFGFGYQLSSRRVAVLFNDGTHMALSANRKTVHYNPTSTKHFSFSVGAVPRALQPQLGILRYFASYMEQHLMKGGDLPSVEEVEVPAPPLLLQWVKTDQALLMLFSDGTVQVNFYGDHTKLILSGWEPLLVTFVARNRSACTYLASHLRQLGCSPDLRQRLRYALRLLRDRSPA

Structure (SMILES) | IC50 (GST-PLK1) [nM] | IC50 (GST-PLK2; [1]) [nM] | IC50 (GST-PLK3; [2]) [µM] | IC50 (GST-PLK2) [nM] | IC50 (GST-PLK3; read-out: Plk3 IC50; PLK TR-FRET peptide assay, GST-PLK3) [µM]
CC[C@@H]1C(=O)N(C)c2cnc(-n3cnc(C)c3)nc2N1C1CCCC1 [Example 55, (R)-8-cyclopentyl-7-ethyl-5-methyl-2-(4-methyl-1H-imidazol-1-yl)-7,8-dihydropteridin-6(5H)-one] | < 1000 | < 1000 | 10 to 50 |  | 
CC[C@@H]1C(=O)N(C)c2cnc(-n3ccc(C(=O)O)n3)nc2N1C1CCCC1 [Example 56, (R)-1-(8-cyclopentyl-7-ethyl-5-methyl-6-oxo-5,6,7,8-tetrahydropteridin-2-yl)-1H-pyrazole-3-carboxylic acid] | 1000 to 10000 | < 1000 | 10 to 50 |  | 
CC[C@@H]1C(=O)N(C)c2cnc(-n3ccc(C(=O)NC)n3)nc2N1C1CCCC1 [Example 58, (R)-1-(8-cyclopentyl-7-ethyl-5-methyl-6-oxo-5,6,7,8-tetrahydropteridin-2-yl)-N-methyl-1H-pyrazole-3-carboxamide] | 1000 to 10000 | < 1000 | > 50 |  | 
CC[C@@H]1C(=O)N(C)c2cnc(-n3cnc(-c4cccnc4)c3)nc2N1C1CCCC1 [Example 59, (R)-8-cyclopentyl-7-ethyl-5-methyl-2-(4-(pyridin-3-yl)-1H-imidazol-1-yl)-7,8-dihydropteridin-6(5H)-one] | < 1000 | < 1000 | 1 to 10 |  | 
CC[C@@H]1C(=O)N(C)c2cnc(-n3ccc(C(=O)N(C)C)n3)nc2N1C1CCCC1 [Example 61, (R)-1-(8-cyclopentyl-7-ethyl-5-methyl-6-oxo-5,6,7,8-tetrahydropteridin-2-yl)-N,N-dimethyl-1H-pyrazole-3-carboxamide] | 1000 to 10000 | 1000 to 10000 | 1 to 10 |  | 
CC[C@@H]1C(=O)N(C)c2cnc(-n3cnc(CCN)c3)nc2N1C1CCCC1 [Example 62, (R)-2-(4-(2-aminoethyl)-1H-imidazol-1-yl)-8-cyclopentyl-7-ethyl-5-methyl-7,8-dihydropteridin-6(5H)-one] | 10000 to 50000 | < 1000 | 10 to 50 |  | 
CC[C@@H]1C(=O)N(C)c2cnc(-n3ccc(C(N)=O)n3)nc2N1C1CCCC1 [Example 63, (R)-1-(8-cyclopentyl-7-ethyl-5-methyl-6-oxo-5,6,7,8-tetrahydropteridin-2-yl)-1H-pyrazole-3-carboxamide] | 1000 to 10000 | < 1000 | 1 to 10 |  | 
CC[C@@H]1C(=O)N(C)c2cnc(-n3ccnc3Br)nc2N1C1CCCC1 [Example 65, (R)-2-(2-bromo-1H-imidazol-1-yl)-8-cyclopentyl-7-ethyl-5-methyl-7,8-dihydropteridin-6(5H)-one] | < 1000 | < 1000 | 10 to 50 |  | 
CC[C@@H]1C(=O)N(C)c2cnc(-n3cnc(C(N)=O)c3)nc2N1C1CCCC1 [Example 69, (R)-1-(8-cyclopentyl-7-ethyl-5-methyl-6-oxo-5,6,7,8-tetrahydropteridin-2-yl)-1H-imidazole-4-carboxamide] | < 1000 | < 1000 | 1 to 10 |  | 
CC[C@@H]1C(=O)N(C)c2cnc(-n3ccc(=N)cc3)nc2N1C1CCCC1 [Example 73, (R)-8-cyclopentyl-7-ethyl-2-(4-iminopyridin-1(4H)-yl)-5-methyl-7,8-dihydropteridin-6(5H)-one] | 10000 to 50000 | 1000 to 10000 | > 50 |  | 
CC[C@@H]1C(=O)N(C)c2cnc(-n3ccnc3N3CCOC3=O)nc2N1C1CCCC1 [Example 78, (R)-3-(1-(8-cyclopentyl-7-ethyl-5-methyl-6-oxo-5,6,7,8-tetrahydropteridin-2-yl)-1H-imidazol-2-yl)oxazolidin-2-one] | 1000 to 10000 | < 1000 | 10 to 50 |  | 
CC[C@@H]1C(=O)N(C)c2cnc(-n3ccnc3-c3ccc(S(C)(=O)=O)cc3)nc2N1C1CCCC1 [Example 79, (R)-8-cyclopentyl-7-ethyl-5-methyl-2-(2-(4-(methylsulfonyl)phenyl)-1H-imidazol-1-yl)-7,8-dihydropteridin-6(5H)-one] | 1000 to 10000 | < 1000 | 10 to 50 |  | 
CN1C(=O)[C@]2(C)CCCN2c2nc(-n3ccnc3-c3ccccc3)ncc21 [Example 80, (S)-5,6a-dimethyl-2-(2-phenyl-1H-imidazol-1-yl)-6a,7,8,9-tetrahydropyrrolo[2,1-h]pteridin-6(5H)-one] | 10000 to 50000 | < 1000 | 10 to 50 |  | 
CC[C@@H]1C(=O)N(C)c2cnc(-n3ccnc3-c3ccncc3)nc2N1C1CCC1 [Example 81, (R)-8-cyclobutyl-7-ethyl-5-methyl-2-(2-(pyridin-4-yl)-1H-imidazol-1-yl)-7,8-dihydropteridin-6(5H)-one] | 1000 to 10000 | < 1000 | 10 to 50 |  | 
CC[C@@H]1C(=O)N(C)c2cnc(-n3ccnc3-c3ccncc3)nc2N1C1CCCC1 [Example 83, (R)-8-cyclopentyl-7-ethyl-5-methyl-2-(2-(pyridin-4-yl)-1H-imidazol-1-yl)-7,8-dihydropteridin-6(5H)-one] | < 1000 | < 1000 | < 1 |  | 
CC[C@@H]1C(=O)N(C)c2cnc(-n3ccnc3-c3cn[nH]c3)nc2N1C1CCCC1 [Example 97, (R)-2-(2-(1H-pyrazol-4-yl)-1H-imidazol-1-yl)-8-cyclopentyl-7-ethyl-5-methyl-7,8-dihydropteridin-6(5H)-one] | < 1000 | < 1000 | < 1 |  | 
CC[C@@H]1C(=O)N(C)c2cnc(-n3ccnc3-c3ccncc3)nc2N1C1CCOCC1 [Example 100, (R)-7-ethyl-5-methyl-2-(2-(pyridin-4-yl)-1H-imidazol-1-yl)-8-(tetrahydro-2H-pyran-4-yl)-7,8-dihydropteridin-6(5H)-one] | 1000 to 10000 | < 1000 | 1 to 10 |  | 
CC[C@@]12CCCN1c1nc(-n3ccnc3-c3ccncc3)ncc1N(C)C2=O [Example 101, (S)-6a-ethyl-5-methyl-2-(2-(pyridin-4-yl)-1H-imidazol-1-yl)-6a,7,8,9-tetrahydropyrrolo[2,1-h]pteridin-6(5H)-one] | 10000 to 50000 | < 1000 | 10 to 50 |  | 
CC[C@@H]1C(=O)N(C)c2cnc(-c3ccncc3)nc2N1C1CCC1 [Example 109, (R)-8-cyclobutyl-7-ethyl-5-methyl-2-(pyridin-4-yl)-7,8-dihydropteridin-6(5H)-one] | 1000 to 10000 | < 1000 | 10 to 50 |  | 
CC[C@@H]1C(=O)N(C)c2cnc(-c3ccncc3-c3ccccc3)nc2N1C(C)C [Example 110, (R)-7-ethyl-8-isopropyl-5-methyl-2-(3-phenylpyridin-4-yl)-7,8-dihydropteridin-6(5H)-one] | < 1000 | < 1000 | < 1 |  | 
CC[C@@H]1C(=O)N(C)c2cnc(-n3ccnc3)nc2N1C1CCC1 [Example 111, (R)-8-cyclobutyl-7-ethyl-2-(1H-imidazol-1-yl)-5-methyl-7,8-dihydropteridin-6(5H)-one] | 1000 to 10000 | < 1000 | 10 to 50 |  | 
CC[C@@H]1C(=O)N(C)c2cnc(-c3cncnc3-c3ccccc3)nc2N1C1CCCC1 [Example 132, (R)-8-cyclopentyl-7-ethyl-5-methyl-2-(4-phenylpyrimidin-5-yl)-7,8-dihydropteridin-6(5H)-one] | < 1000 | < 1000 | < 1 |  | 
CC[C@@H]1C(=O)N(C)c2cnc(-c3cnoc3-c3ccccc3)nc2N1C1CCCC1 [Example 133, (R)-8-cyclopentyl-7-ethyl-5-methyl-2-(5-phenylisoxazol-4-yl)-7,8-dihydropteridin-6(5H)-one] | < 1000 | < 1000 | < 1 |  | 
CC[C@@H]1C(=O)N(C)c2cnc(-c3cn[nH]c3-c3ccccc3)nc2N1C1CCCC1 [Example 134, (R)-8-cyclopentyl-7-ethyl-5-methyl-2-(5-phenyl-1H-pyrazol-4-yl)-7,8-dihydropteridin-6(5H)-one] | < 1000 | < 1000 | < 1 |  | 
CC[C@@H]1C(=O)N(C)c2cnc(-n3ncnc3-c3ccccc3)nc2N1C1CCCC1 [Example 135, (R)-8-cyclopentyl-7-ethyl-5-methyl-2-(5-phenyl-1H-1,2,4-triazol-1-yl)-7,8-dihydropteridin-6(5H)-one] | < 1000 | < 1000 | < 1 |  | 
CC[C@@]12CCCN1c1nc(-n3ccnc3-c3cccnc3)ncc1N(C)C2=O [Example 137, (S)-6a-ethyl-5-methyl-2-(2-(pyridin-3-yl)-1H-imidazol-1-yl)-6a,7,8,9-tetrahydropyrrolo[2,1-h]pteridin-6(5H)-one] | > 50000 | 1000 to 10000 | > 50 |  | 
CC[C@@H]1C(=O)N(C)c2cnc(-c3nccnc3-c3ccccc3)nc2N1C1CCCC1 [Example 138, (R)-8-cyclopentyl-7-ethyl-5-methyl-2-(3-phenylpyrazin-2-yl)-7,8-dihydropteridin-6(5H)-one] | < 1000 |  |  | < 1000 | < 1
CC[C@@H]1C(=O)N(C)c2cnc(-c3cnncc3-c3ccccc3)nc2N1C1CCCC1 [Example 139, (R)-8-cyclopentyl-7-ethyl-5-methyl-2-(5-phenylpyridazin-4-yl)-7,8-dihydropteridin-6(5H)-one] | < 1000 | < 1000 | < 1 |  | 
CC[C@@H]1C(=O)N(C)c2cnc(-n3ccnc3-c3cnccn3)nc2N1C1CCOCC1 [Example 140, (R)-7-ethyl-5-methyl-2-(2-(pyrazin-2-yl)-1H-imidazol-1-yl)-8-(tetrahydro-2H-pyran-4-yl)-7,8-dihydropteridin-6(5H)-one] | 1000 to 10000 | < 1000 | > 50 |  | 
CC[C@@]12CCCN1c1nc(-n3ccnc3-c3cnccn3)ncc1N(C)C2=O [Example 144, (S)-6a-ethyl-5-methyl-2-(2-(pyrazin-2-yl)-1H-imidazol-1-yl)-6a,7,8,9-tetrahydropyrrolo[2,1-h]pteridin-6(5H)-one] | > 50000 | 1000 to 10000 | > 50 |  | 

Reference: patent US8445503B2, “Inhibitors of polo-like kinase” (Elan Pharmaceuticals, Inc., priority 2009, dated 2013)
